The experiment addresses T1, human CXCR2 receptor (Homo sapiens, UniProt P25025).
T1 construct: expressed in transfected cells; host or cells: HEK293, stably transfected geneticin-resistant clones, vector RcCMV; membranes purified by sucrose gradient
T1 sequence (P25025 1-360): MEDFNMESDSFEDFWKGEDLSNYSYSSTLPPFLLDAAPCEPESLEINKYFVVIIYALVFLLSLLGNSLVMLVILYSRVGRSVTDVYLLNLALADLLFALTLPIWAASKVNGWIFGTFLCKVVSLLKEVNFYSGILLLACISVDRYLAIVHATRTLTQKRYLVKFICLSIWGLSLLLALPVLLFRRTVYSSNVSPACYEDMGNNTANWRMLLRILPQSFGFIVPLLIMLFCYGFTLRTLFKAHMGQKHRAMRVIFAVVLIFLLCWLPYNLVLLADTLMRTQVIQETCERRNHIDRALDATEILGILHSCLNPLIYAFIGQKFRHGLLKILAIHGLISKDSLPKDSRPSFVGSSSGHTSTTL
In words: Potency (pIC50) ligand binding assay, inhibition of [125I]IL-8 binding. Conditions: for pIC50: inhibition of specific [125I]IL-8 (0.06 nM) binding, membranes of HEK293 cells transfected with human recombinant CXCR2. As for the experimental part: Potency (pIC50)—Ligand Binding Assay
The potency of antagonists at the human CXCR2 receptor was determined in vitro by quantifying their ability to inhibit specific binding of the CXCR2 radioligand, [^125I]interleukin-8 (IL-8), from membranes of HEK293 cells transfected with the human recombinant CXCR2 receptor.
Commercially sourced materials were obtained as follows: U-bottomed 96-well plates (3799) and 225 cm^2 vented cap culture flasks (3001) from Costar, Corning, Kent, UK. Multiscreen filter plates (0.45 μm; MAHV N45 50), vacuum manifold and pump (XF54 230 50) from Millipore, Watford, UK. N-[2-hydroxyethyl]piperazine-N′-[2ethanesulphonic acid] (HEPES; H-3375), ethylene diamine-tetraacetic acid (EDTA; E1644), magnesium chloride (M-9272), gelatin (G9382), dithiothreitol (DTT; D06052), sodium chloride (S3160/63), sodium hydroxide (B6506), bacitracin (B0125), inactivated foetal calf serum (FCS; CR0848) and DMSO Fluka Chemika (41648) from Sigma, Poole, UK. MicroScint-O (6013611) Packard BioScience, Pangboume, UK. Complete protease inhibitor cocktail tablets (1836145) from Boehringer s Mannheim, GmbH, Germany. Human recombinant [^125I]IL-8 74 TBq/mmol, 0.712 MBq/ml (IM249) from Amersham, Horsham UK. All other tissue culture reagents were purchased from Invitrogen, Paisley, Scotland, UK. All other chemical reagents were analytical grade from Fisher Scientific, Loughborough, UK
HEPES-buffered salt solution pH 7.4 containing HEPES (10 mM), potassium chloride (2.7 mM), sodium chloride (137 mM), potassium hydrogen phosphate (0.4 mM), calcium chloride (1.8 mM), magnesium chloride (1 mM), gelatin (0.1% (w/v)) and bacitracin (100 μg/ml).
HEPES-buffered Tyrode's solution pH 7.4 containing HEPES (10 mM), potassium chloride (2.7 mM), sodium chloride (137 mM), potassium hydrogen phosphate (0.4 mM), glucose (11 mM).
Hypotonic buffer: 3:1 mix of water: HEPES-buffered Tyrode's solution.
HEK293 cells were transfected with human CXCR2 (EMBL L19593) cDNA, previously cloned into the eukaryotic expression vector RcCMV. Cloned cell-lines were generated from stably-transfected geneticin-resistant populations. Cells were routinely grown to approximately 80% confluence in DMEM medium containing 10% (v/v) foetal calf serum and glutamine (2 mM) in a humidified incubator at 37° C., 5% CO2. Cells were harvested from flasks using Accutase™ at 37° C. for 3 to 5 minutes and resuspended on ice in hypotonic buffer at a density of 2×10^7 cells/mL. Membranes were prepared on ice by homogenisaton using a polytron tissue homogenizer set at 22000 rpm. The membrane fraction was purified by sucrose gradient centrifugation where homogenised cells were layered onto 41% (w/v) sucrose solution then centrifuged at 140000 g for 1 hour at 4° C. The membrane fraction was harvested at the interface, diluted 4-fold with HEPES-buffered Tyrode's solution and centrifuged at 100000 g for 20 minutes at 4° C. The membrane pellet was re-suspended at 1×10^8 cell equivalents/mL in HEPES-buffered Tyrode's solution and subsequently stored in aliquots at −80° C. All buffers used for membrane preparation and storage were made in the presence of 1 mM DTT and Complete Protease Inhibitor™ cocktail tablets, made up to manufacturers instructions.
Assays were performed in HEPES-buffered salt solution in 96-well plates. [^125I]IL-8 was used at a final concentration of 0.06 nM, pre-diluted from a 9.6 nM stock. The final DMSO concentration in the assay was 1% (v/v). Test compounds were prepared by serial dilution in DMSO followed by a ten-fold dilution into HEPES-buffered salt solution to give a working solution containing compound and 10% DMSO. The control for total binding (B0) of [^125I]IL-8 was determined in the absence of compound. The control for non-specific binding (NSB) was determined by measuring [^125I]IL-8 binding in the presence of (1R)-5-[[(3 -chloro-2-fluorophenyl)methyl]thio]-7-[[2-hydroxy-1-methylethyl]amino]thiazolo[4,5-d]pyrimidin-2(3H)-one dihydrate, sodium salt at 1 μM final concentration. […]

What is called pIC50 is the negative decadic logarithm of the IC50, by convention in mol/L.

pIC50: −log10 of the molar value. Where “and” joins values, the source holds several entries; their conditions need not be identical. Identical values can stand only once.

With `Cc1cccc(CSc2nc(N[C@H](C)CO)cc(NS(=O)(=O)N3CCC3)n2)c1F` [Example 40], the pIC50 was 8.60.

Regarding `Cc1ccc(CSc2nc(N[C@H](C)CO)cc(NS(=O)(=O)N3CCC3)n2)c(F)c1C` [Example 42], the pIC50 was 8.10.

As for `Cc1cccc(CSc2nc(N[C@H](C)CO)cc(NS(C)(=O)=O)n2)c1F` [Example 39], the pIC50 is 8.40.

On to `C[C@@H](Nc1cc(NS(=O)(=O)N2CCC2)nc(SCc2cccc(F)c2F)n1)[C@@H](O)CO` [Example 1, N-(2-[(2,3-difluorobenzyl)thio]-6-{[(1R,2R)-2,3-dihydroxy-1-methylpropyl]amino}pyrimidin-4-yl)azetidine-1-sulfonamide], for which the pIC50 was 8.20 and > 8.00.

For the compound `Cc1ccc(CSc2nc(N[C@H](C)CO)cc(NS(=O)(=O)N3CCC3)n2)c(F)c1C` [Example 41], the pIC50 was 8.50.

As for `CS(=O)(=O)Nc1cc(NC(CO)CO)nc(SCc2ccccc2)n1` [Example 21], the pIC50 was 5.60. Besides, under “potency ratio from pIC50”, the “fold less potent than the compound of Formula (1)” value was 398 fold and the “fold less potent than the compounds of Examples 39-42” value is listed as 316-1000 fold.

For the origin of these results see patent publication US20100016275A1, “NOVEL COMPOUND 395” (priority 2008, published 2010).
